Measured values: patent USRE35904E, “Method and probes for detecting nucleoside transporter and method for producing the probes” (Governors of the University of Alberta, priority 1995, dated 1998)

Columns and labels:
[1] = target: T1, es nucleoside transporter (Mus musculus, UniProt Q9JIM1); assay: [3H]NBMPR equilibrium binding to L1210/B23.1 cells and its inhibition by SAENTA-fluorescein probes; details: 22°; for Ki: replots of Kd(app)/Bmax versus [probe], read-out: Ki (mean ± S.D.)
T1 construct: endogenous in cells; host or cells: L1210/B23.1 mouse leukemia cells
T1 sequence (Q9JIM1 1-460): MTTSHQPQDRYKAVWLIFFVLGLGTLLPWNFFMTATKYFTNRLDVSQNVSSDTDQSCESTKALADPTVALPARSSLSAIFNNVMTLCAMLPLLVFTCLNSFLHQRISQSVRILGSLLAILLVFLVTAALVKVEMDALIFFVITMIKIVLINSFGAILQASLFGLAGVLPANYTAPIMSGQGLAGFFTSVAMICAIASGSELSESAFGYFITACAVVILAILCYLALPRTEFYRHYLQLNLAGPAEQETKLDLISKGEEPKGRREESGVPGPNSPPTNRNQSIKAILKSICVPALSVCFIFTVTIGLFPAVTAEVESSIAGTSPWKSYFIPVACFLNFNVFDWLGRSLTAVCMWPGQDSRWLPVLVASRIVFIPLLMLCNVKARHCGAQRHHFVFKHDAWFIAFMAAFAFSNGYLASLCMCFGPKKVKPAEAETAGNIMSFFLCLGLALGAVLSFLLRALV

[2] = target: T2, es nucleoside transporter (Sus scrofa, UniProt A0A287B2T6); assay: Inhibition of site-specific [3H]NBMPR binding to unsealed pig erythrocyte ghosts; details: for IC50: 2 nM [3H]NBMPR, 20 min, 22° C., pH 7.4, read-out: IC50 for inhibition of site-bound [3H]NBMPR; for inhibition of NBMPR binding to the nucleoside transporter: result in words
T2 construct: immediately processed by conventional methods for recovery of erythrocytes; tissue Gainers, Edmonton, Alberta, Canada (blood of domestic pigs); host or cells: pig erythrocytes, unsealed ghosts
Procedure: Blood from adult domestic pigs (Gainers, Edmonton, Alberta, Canada) was collected into 0.2 vol. of anticoagulant solution (90 mM-sodium citrate/16 mM-citric acid/16 mM-monosodium phosphate/2 mM-adenine/12 mM-inosine) and immediately processed by conventional methods for recovery of erythrocytes.
Unsealed ghosts were prepared at 4° C. by the procedure of Steck & Kant, (1974), Methods in Enzymology, vol. 31, pp. 172-180, modified by the inclusion of 0.1 mM phenylmethane sulphonyl fluoride, and stored at -70° C.
NBMPR was prepared as described by Paul, Chen & Paterson (1975), J. Med Chem., vol. 18, pp. 968-973. [G-^3 H]NBMPR (23 Ci/mmol), obtained from Moravek Biochemicals, Brea, CA., U.S.A., was purified by using a Spheri-10 RP18 100 mm×4.6 mm column (Brownlee Labs, Santa Clara, CA,. U.S.A.), eluted with a methanol/water gradient.
Binding to unsealed ghosts was determined by a filtration assay, as described by Agbanyo, Cass & Paterson (1988) Mol. Pharmacol., vol. 33, pp. 332-337. Assay mixtures (final volume, 1.2 ml; two samples per condition) contained 2 nM-[^3 H]NBMPR, graded concentrations of test compound and unsealed ghosts (10 μg of protein/ml) in 5 mM-sodium phosphate buffer, pH 7.4, at 22° C., and, for determination of non-specific binding, 5 μM non-radioactive NBMPR was present. After a 20 min incubation at 22° C., membrane material from 1 ml portions of assay mixtures was collected by vacuum filtration on Whatman GF/C microfibre filters, which were then rapidly washed three times with 2 ml portions of ice-cold 5 mM-sodium phosphate buffer. The filters were placed in scintillation vials and assayed for radioactivity after a 16 h incubation in 8 ml of Triton X-100-based scintillation fluid as described by Pande (1976) Anal. Biochem., vol. 74, pp. 25-34. Protein was determined by the bicinchoninic acid method of Smith et al. (1985) Anal. Biochem., vol. 150, pp. 76-85.
Correction for non-specific binding was determined by performing the assay in the presence of 5 μM-non radioactive NBMPR. Replicate mixtures contained ghosts, 2 nM-[^3 H]NBMPR, graded concentrations of SAENTA or acetyl SAENTA (prepared as in Example 1) and, in mixtures used for non-specific binding, 5 μM-non radioactive NBMPR. Values for [^3 H]NBMPR specifically bound in the presence of inhibitor are expressed as percentages of that bound in its absence.
IC50 values were determined from plots of % site-bound NBMPR in presence of test compound against concentration of test compound.

nucleoside transporter [3] = target: T3, nucleoside transporter (Homo sapiens, UniProt Q99808); assay: Inhibition of [3H]cytosine arabinoside (araC) influx in RC2a leukaemic cells; format: cell-based
T3 construct: The human leukaemic cell line RC2a, of myelomonocytic origin; endogenous in cells; host or cells: RC2a human leukaemic (myelomonocytic) cells
T3 sequence (Q99808 1-456): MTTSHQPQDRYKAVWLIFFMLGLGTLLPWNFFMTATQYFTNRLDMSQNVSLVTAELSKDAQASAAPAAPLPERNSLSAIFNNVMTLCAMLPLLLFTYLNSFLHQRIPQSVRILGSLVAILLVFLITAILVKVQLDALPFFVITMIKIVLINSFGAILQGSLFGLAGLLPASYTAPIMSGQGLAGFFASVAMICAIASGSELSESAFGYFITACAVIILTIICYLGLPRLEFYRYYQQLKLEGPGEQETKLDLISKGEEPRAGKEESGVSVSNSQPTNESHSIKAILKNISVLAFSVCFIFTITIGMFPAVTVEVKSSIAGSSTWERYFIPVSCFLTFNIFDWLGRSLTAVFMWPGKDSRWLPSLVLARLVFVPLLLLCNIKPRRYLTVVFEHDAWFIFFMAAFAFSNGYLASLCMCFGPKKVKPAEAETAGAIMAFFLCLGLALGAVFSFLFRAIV
Procedure: . Unlabelled NBMPR was supplied by Sigma (St. Louis, MO, U.S.A.). [^3 H]Cytosine arabinoside (araC) and [^14 C]polyethylene glycol were obtained from Amersham, Buckinghamshire, England. Dilazep was a gift from Roche, Dee Why, Australia. Incubations were carried out using imidazole-buffered saline (IBS; […], 5 mM KCl, 5 mM imidazole-Cl, 1 mM MgCl2 and 5 mM glucose, pH 7.4).
The human leukaemic cell line RC2a, of myelomonocytic origin (Bradley et al., 1982 Brit. J. Haematol., vol. 51, pp. 595-604) was maintained in RPMI 1640 medium containing 10% foetal calf serum, 2 mM glutamine, 20 mM HEPES (pH 7.4) (Flow Laboratories, Sydney, Australia) and 20 mg/l gentamycin sulphate (Roussell, Castle Hill, Australia). Cell densities were maintained below 5×10^5 /ml. Cells were collected by centrifugation and resuspended in buffered saline for assays.
Prior to measurement of [^3 H]araC uptake, RC2a leukaemic cells were treated at 20° C. for 10 min with graded concentrations (0-0.05 μM) of .[.SAENTA-x2 -fluorescein.]. .Iadd.SAENTA-X2-fluorescein .Iaddend.prepared as in Example 3. Treated cells (100 μl, 5×10^7 cells/ml) were added to [^3 H]araC (100 μl) in IBS medium in 1.5 ml centrifuge tubes to give a final araC concentration of 50 μM. [^3 H]araC uptake was ended 20 sec. later by the addition of 800 μl of ice-cold dilazep (750 μM) (Jamieson et al., 1989). Phthalate oil was added immediately and the tube spun at 8000 g for 2 min. Medium above the oil was aspirated, the tube walls washed, and the oil above the cell pellet removed. Pellets were solubilized using 0.5M NaOH and the [^3 H]araC contents were measured by liquid scintillation counting. […]
The ability of .[.SAENTA-x2 -fluorescein.]. .Iadd.SAENTA-X2-fluorescein .Iaddend.to inhibit influx of nucleoside was assessed in cultured RC2a leukaemic cells by treating the cells for 10 min with graded concentrations of .[.SAENTA-x2 -fluorescein.]. .Iadd.SAENTA-X2-fluorescein .Iaddend.(0 to 0.25 μM). Uptake rates of araC (50 μM) were then determined over 20 s at 20° C. as described above.

[4] = target: T1, es nucleoside transporter; assay: Flow cytometric staining of L1210/B23.1 cells (es nucleoside transporter-expressing) by SAENTA-fluorescein probe; format: cell-based; details: 40 nM 5-(SAENTA-X2)-fluorescein, 10 min, 4° C., pH 8.0, FIG. 8
Procedure: Flow cytometric measurements of binding of .[.SAENTA-x2 -fluorescein.]. .Iadd.SAENTA-X2-fluorescein .Iaddend.prepared as in Example 3 was carried out as in Example 4 using two clonal lines of cultured mouse leukemia L 1210 cells, L 1210/B23.1 and L 1210/MA-27.1. L 1210/B23.1 expresses NBMPR binding sites and nuclesoside transporter activity whereas L 1210/MA-27.1 cells lack both of these features.
Staining conditions were chosen to minimise non-specific fluorescence signals from L 1210/MA-27.1 cells treated with the nucleoside.
Cells were exposed for 10 min at 4° C. to phosphate-buffered (pH 8.0) salts medium containing 40 nM .[.5(SAENTA-xx2)fluorescein.]. .Iadd.5-(SAENTA-X2)-fluorescein .Iaddend.prior to flow cytometric analysis in a BD FACSan instrument; 10^5 cells were analysed. Cells in replicate assay mixtures were also exposed for 5 min at 22° C. to medium containing 10 μM NBMPR and then for 10 min at 4° C. to medium containing both NBMPR and .[.5-SAENTA-x2)-fluorescein.]. .Iadd.5-(SAENTA-X2)-fluorescein.Iaddend..
(a) Clonal lines of mouse leukemia cells were exposed for 10 min at 4° C. to phosphate buffered (pH 8.0) saline containing […] .[.5-(SAENTA-x2)-fluorescein.]. .Iadd.5-(SAENTA-X2)-fluorescein .Iaddend.(prepared as in Example 3) prior to flow cytometric analysis in a BD FACScan instrument; 10^4 cells were analysed. Cells in replicate mixtures were also exposed for 5 min at 22° C. to medium containing 10 μM NBMPR and then for 10 min at 4° C. to medium containing both NBMPR and .[.5-(SAENTA-x2)-fluorescein.]. .Iadd.5-(SAENTA-X2)-fluorescein.Iaddend.. L 1210/B23.1 cells express the es nucleoside transport system whereas L 1210/MA-27.1 cells lack that activity.

nucleoside transporter [5] = target: T3, nucleoside transporter; assay: Equilibrium binding of SAENTA-fluorescein probe to RC2a cells by flow cytometry, with displacement by NBMPR or dilazep
nucleoside transporter [6] = target: T3, nucleoside transporter; assay: Inhibition of [3H]NBMPR binding to RC2a leukaemic cells; details: 30 min, 37° C., FIG. 5; read-out: half-maximal inhibition of site-specific [3H]NBMPR binding
Procedure: [^3 H]NBMPR from Moravek Biochemicals Brea, CA, U.S.A. was purified by reverse phase HPLC using methanol-water as solvent. Unlabelled NBMPR was supplied by Sigma (St. Louis, MO, U.S.A.). [^3 H]Cytosine arabinoside (araC) and [^14 C]polyethylene glycol were obtained from Amersham, Buckinghamshire, England. Dilazep was a gift from Roche, Dee Why, Australia.
The free [^3 H]NBMPR concentration in the medium above the oil was also measured. Non-specific binding of [^3 H]NBMPR was measured in parallel incubations of cells treated for 5 min at 37° C. with 5 μM NBMPR before the addition of [^3 H]NBMPR. Specific binding was calculated by subtracting the amount of non-specific binding (determined in the presence of 5 μM unlabelled NBMPR) from total [^3 ]NBMPR binding in all analyses.

T2 sequence (A0A287B2T6 1-457): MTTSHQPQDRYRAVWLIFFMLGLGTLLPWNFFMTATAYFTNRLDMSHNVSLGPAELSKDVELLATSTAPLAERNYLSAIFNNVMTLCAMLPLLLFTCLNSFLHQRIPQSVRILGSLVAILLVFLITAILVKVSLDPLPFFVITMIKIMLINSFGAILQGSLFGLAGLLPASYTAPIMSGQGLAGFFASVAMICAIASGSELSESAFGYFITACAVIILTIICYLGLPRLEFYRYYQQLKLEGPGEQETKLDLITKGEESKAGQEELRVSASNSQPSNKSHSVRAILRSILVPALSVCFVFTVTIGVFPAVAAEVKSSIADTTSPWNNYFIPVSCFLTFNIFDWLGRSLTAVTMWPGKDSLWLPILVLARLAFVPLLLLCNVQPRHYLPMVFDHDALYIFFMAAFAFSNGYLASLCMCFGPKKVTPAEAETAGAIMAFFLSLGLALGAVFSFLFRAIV

O=C(CCCCCNC(=O)c1ccc2c(c1)C(=O)OC21c2ccc(O)cc2Oc2cc(O)ccc21)NCCSC[C@H]1O[C@@H](n2cnc3c(NCc4ccc([N+](=O)[O-])cc4)ncnc32)[C@H](O)[C@@H]1O [5-(SAENTA-X8)-fluorescein, 5'-S-[2-(6-(Fluorescein-5-carboxamido)hexanoylamino)ethyl]-N^6-(4-nitrobenzyl)-5'-thioadenosine]
Ki [1]: 0.8 ± 0.21 nM

O=C1OC2(c3ccc(O)cc3Oc3cc(O)ccc32)c2cc(NC(=S)NCCSC[C@H]3O[C@@H](n4cnc5c(NCc6ccc([N+](=O)[O-])cc6)ncnc54)[C@H](O)[C@@H]3O)ccc21 [6-(SAENTA-X2)-fluorescein]
Ki [1]: 9.9 ± 2.8 nM

O=C(CCCCCNC(=O)c1ccc2c(c1)C1(OC2=O)c2ccc(O)cc2Oc2cc(O)ccc21)NCCSC[C@H]1O[C@@H](n2cnc3c(NCc4ccc([N+](=O)[O-])cc4)ncnc32)[C@H](O)[C@@H]1O [6-(SAENTA-X8)-fluorescein, 5'-S-[2-(6-(Fluorescein-6-carboxamido)hexanoylamino)ethyl]-N^6-(4-nitrobenzyl)-5'-thioadenosine]
Ki [1]: 1.7 ± 0.5 nM

O=[N+]([O-])c1ccc(CSc2ncnc3c2ncn3C2OC(CO)C(O)C2O)cc1 (centres unmarked) [NBMPR, nitrobenzyl thioinosine, reference compound]
Kd ([1]; Scatchard analysis (LIGAND)): 0.085 ± 0.015 nM

NCCSC[C@H]1O[C@@H](n2cnc3c(NCc4ccc([N+](=O)[O-])cc4)ncnc32)[C@H](O)[C@@H]1O [SAENTA, 5'-S-(2-aminoethyl)-6-N-(4-nitrobenzyl)-5'-thioadenosine]
IC50 [2]: 330 nM | inhibition of NBMPR binding to the nucleoside transporter [2]: strong inhibition

O=C(O)c1cc(NC(=S)NCCSC[C@H]2O[C@@H](n3cnc4c(NCc5ccc([N+](=O)[O-])cc5)ncnc43)[C@H](O)[C@@H]2O)ccc1-c1c2ccc(=O)cc-2oc2cc(O)ccc12 [SAENTA-X2-fluorescein]
IC50 (nucleoside transporter [3]; 50 μM araC, 20° C., 10 min pretreatment): ~40 nM | inhibition of influx of [3H]araC (nucleoside transporter [3]; 50 μM araC, 20° C., 10 min exposure to 0.25 μM probe): 90% | distinction of L1210/B23.1 from L1210/MA-27.1 cells by cell staining [4]: able to distinguish clearly | EC50 (nucleoside transporter [5]; RC2a cells 1×10^5/ml, room temperature, n=3, ±1 SD, FIG. 7, read-out: concentration giving half-maximal binding (NBMPR-sensitive)): 6.2 ± 1 nM | time to equilibrium of cell bound fluorescence (nucleoside transporter [5]; all ligand concentrations, room temperature): 10 min | time to equilibrium between bound and free probe (nucleoside transporter [5]; lowest ligand concentration, room temperature): 10 min | IC50 (nucleoside transporter [6]): 50 to 100 nM

CC(=O)NCCSC[C@H]1O[C@@H](n2cnc3c(NCc4ccc([N+](=O)[O-])cc4)ncnc32)[C@H](O)[C@@H]1O [acetyl SAENTA]
IC50 [2]: 76 nM | inhibition of NBMPR binding to the nucleoside transporter [2]: strong inhibition

COc1cc(C(=O)OCCCN2CCCN(CCCOC(=O)c3cc(OC)c(OC)c(OC)c3)CC2)cc(OC)c1OC [dilazep, reference compound]
effectiveness in stopping araC influx (nucleoside transporter [3]; dilazep added to cells prior to [3H]araC): effectiveness of dilazep in stopping influx was confirmed | displacement of SAENTA-X2-fluorescein binding (nucleoside transporter [5]; 2 μM dilazep versus 1 μM NBMPR): as effective as NBMPR
